The values below are quoted from earlier work in patent US11311556B2, “Topical dutasteride emulsions for treating endocrine therapy-induced alopecia” (Varsona Therapeutics, Inc., priority 2020, dated 2022).

One data set deals with DHT. The conditions noted are these: oral, subjects with BPH.
The conditions of data set [1]: 416 men, 12 to 24 weeks.

Where two headings read alike, the source gives them in different places.

With `C[C@]12C=CC(=O)N[C@@H]1CC[C@@H]1[C@@H]2CC[C@]2(C)[C@@H](C(=O)Nc3cc(C(F)(F)F)ccc3C(F)(F)F)CC[C@@H]12` [oral dutasteride, (5α, 17β)-N-{2,5 bis(trifluoromethyl)phenyl}-3-oxo-4-azaandrost-1-ene-17-carboxamide], the figures for the DHT blocked with DHT (0.5 mg daily dose) and in the data set on DHT (5 mg daily dose) were 94.7+/−3.3% and 98.4%, respectively. For the same compound, the “Hair count results versus oral finasteride” value in data set [1] is given as “better hair count results than oral finasteride”.

For the compound `CC(C)(C)NC(=O)[C@H]1CC[C@H]2[C@@H]3CC[C@H]4NC(=O)C=C[C@]4(C)[C@H]3CC[C@]12C` [oral finasteride, finasteride], the DHT blocked with DHT (5 mg daily dose) is on record as 70.8+/−18.3%.
